How the values were obtained:
A549 (lung carcinoma) = assay: Proliferation assay (MTT, 72 h) on A549; assay type: cell-based; details: Homo sapiens, A549 lung adenocarcinoma
Experimental: (§1) Human carcinoma cell lines A549 (lung carcinoma), HeLa (cervical carcinoma), SW620 (colorectal adenocarcinoma, metastatic), and CFPAC-1 (pancreatic cancer, derived from metastatic: liver), normal human lung (WI38) and foreskin (HFF-1) fibroblasts were obtained from the American Type Culture Collection (ATCC). Cells were cultured in humidified atmosphere at 37 °C with 5% CO2. As growth medium, Dulbecco’s modified Eagle medium (DMEM) was used with the addition of foetal bovine serum (10%), L-glutamine (2 mM) and antibiotics: streptomycin (100 µg/ml) and penicillin (100 U/ml).
(§2) Cells were seeded onto 96-well microtiter plates at a seeding density of 3000 cells/well for carcinoma cell lines, and 5000 cells/well for normal human fibroblasts. The next day, cells were treated with test agents in five different concentrations (0.01–100 µM) and further incubated for 72 h. […] Following 72 h incubation, the MTT assay was performed and measured absorbances were transformed into percentage of cell growth as described previously. Results were obtained from three independent experiments. IC50 values were calculated using linear regression analysis and results were statistically analysed by ANOVA, Tukey post-hoc test (p < .05).

[1] = system: CFPAC-1 (ductal pancreatic adenocarcinoma); assay: Proliferation assay (MTT, 72 h) on CFPAC-1; assay type: cell-based; details: Homo sapiens
Experimental: as §1, §2

[2] = system: HeLa (cervical carcinoma); assay: Proliferation assay (MTT, 72 h) on HeLa; assay type: cell-based; details: Homo sapiens
Experimental: as §1, §2

[3] = system: SW620 (colorectal adenocarcinoma, metastatic); assay: Proliferation assay (MTT, 72 h) on SW620; assay type: cell-based; details: Homo sapiens, SW-620
Experimental: as §1, §2

[4] = system: WI38 normal human lung fibroblasts; assay: Proliferation assay (MTT, 72 h) on normal lung fibroblasts WI38; assay type: cell-based; details: WI-38, read-out: IC50 WI38/HFF-1 (WI38)
Experimental: as §1, §2

A549 cells = assay: Annexin V-FITC assay for apoptosis detection; assay type: cell-based, human
Experimental: Staining of the cells was performed by Annexin-V-FITC Staining kit (Santa Cruz Biotechnology, Dallas, TX) according to the manufacturer’s instructions. Cells were visualised by fluorescent microscope (Olympus) at magnification of 40×.
Further biological evaluations of compound 12b which was identified as a candidate were performed in order to investigate whether its antiproliferative effect in non-small cell lung cancer (A549) could be associated with induction of apoptosis.

GPLD1 = assay: Western blot analysis of GPLD1 in A549 cells; assay type: cell-based, human; details: A549, 2 × IC50, 48 h
Experimental: (§3) Cells were seeded in 6-well plates in the concentration depending on tested cell line varying from 1 × 10^5 to 2 × 10^5 cells/well. […] Following treatment, cells were lysed with RIPA buffer supplemented with protease and phosphatase inhibitors (Roche). Total proteins (50 µg) were resolved on 10 or 12% polyacrilamide gels, depending on protein size, and transferred onto PVDF membranes that were blocked for 1 h with either 4% BSA or 5% non-fat milk prepared in tris-buffered saline (TBST). Membranes were probed with primary antibodies against GPLD1 (Abcam), PDGFRβ, p-IGF-1Rβ, p-p38 MAPK, and p-NF-κB-p65 from cell signalling technology at 4 °C overnight. The next day, membranes were washed in TBST and probed with horseradish peroxidase-conjugated secondary antibodies goat anti-mouse (Santa Cruz Biotechnology) or goat anti-rabbit (Santa Cruz Biotechnology). Protein bands were visualised using chemiluminescence substrate and ImageQuant LAS 500 (GE Healthcare, Chicago, IL). Following visualisation, protein band density was analysed by Quantity One 1-D Analysis Software (Bio-Rad, Hercules, CA).

PDGFRβ = assay: Western blot analysis of PDGFR in A549 cells; assay type: cell-based, human; details: A549, 2 × IC50, 48 h
Experimental: as §3

p-IGF-1Rβ = assay: Western blot analysis of p-IGF-1Rβ in A549 cells; assay type: cell-based, human; details: A549, 2 × IC50, 48 h
Experimental: as §3

p-NF-κB-p65 = assay: Western blot analysis of p-NF-κB-p65 in A549 cells; assay type: cell-based, human; details: A549, 2 × IC50, 48 h
Experimental: as §3

p-p38 MAPK = assay: Western blot analysis of p-p38 MAPK in A549 cells; assay type: cell-based, human; details: A549, 2 × IC50, 48 h
Experimental: as §3

[5] = A549, 48 h, 2 × IC50, versus control

Which results are given for `Clc1ccc(-n2cc(Cn3cnc4ccccc43)nn2)cc1` [Compound 12b, 1-{[1-(4-chlorophenyl)-1H-1,2,3-triazol-4-yl]methyl}-1H-benzo[d]imidazole]?
IC50 (A549 (lung carcinoma)): 0.79 µM; IC50 [1]: 52.6 µM; IC50 [2]: 42.2 µM; IC50 [3]: 91.2 µM; IC50 [4]: 38.1 µM; Secondary necrotic cells (A549 cells; A549, 48 h, 2 × IC50, PI+): 2.39%; Late apoptotic/Primary necrotic cells (A549 cells; A549, 48 h, 2 × IC50, PI+/Ann V+): 19.76%; Early apoptotic cells (A549 cells; A549, 48 h, 2 × IC50, PI−/Ann V+): 31.14%; Viable cells (A549 cells; A549, 48 h, 2 × IC50, PI−/Ann V−): 46.71%; increase in early apoptotic cell population (A549 cells; [5]): 30.62%; increase in late apoptotic/necrotic cell population (A549 cells; [5]): 19.76%; induction of apoptosis (A549 cells; A549 cells): induced apoptosis; expression level of GPLD1 protein (GPLD1): dramatically reduced; expression of PDGFR (PDGFRβ): downregulated; expression of p-IGF-1Rβ (p-IGF-1Rβ): downregulated; p-NF-κB-p65 subunit expression level (p-NF-κB-p65): significant reduction; expression level of p-p38 MAP kinase (p-p38 MAPK): marked decline

Reference: PMC6009932, “Small molecule purine and pseudopurine derivatives: synthesis, cytostatic evaluations and investigation of growth inhibitory effect in non-small cell lung cancer A549” (Journal of Enzyme Inhibition and Medicinal Chemistry, 2017)
